“Also recorded” adds a separate entry of the source.
Legend:
Assay type in all cases: cell-based, Wistar rats
[1] = target: T1, receptor of the tyrosine kinase (RTK) family (Rattus norvegicus, UniProt P35739); experiment: FM endocytosis imaging (FEI) of NGF-induced endocytosis in DRG neuron; details: NGF 50 ng/ml
T1 construct: endogenous in cells; host or cells: freshly dissociated small DRG neurons of Wistar rats
Source text: (§1) Methods of the invention are based on FM endocytosis imaging (FEI). Confocal imaging can be used to measure the endocytosis induced by ligand-receptor binding (LRB). The principles of FM endocytosis imaging (FEI) method are: (i) an extracellular styryl FM dye (e.g., FM2-10) is taken up by the endocytic vesicles; and (ii) the FM molecule becomes 100 times brighter after uptake into vesicles. Thus, after proper stimulation, individual FM-loaded vesicles become visible images by standard confocal microscopy.
(§2) FIG. 2A illustrate a method of the invention. […] The ligand binds to the receptor and triggers receptor internalization (endocytosis). In the endocytosis process, the FM dye is internalized in endocytic vesicles. […]
(§3) The dye-containing vesicles in the cell may be imaged with a confocal fluorescence microscope, such as Zeiss LSM 510 (Germany). […]
(§4) The FM spots in each OS can be counted manually or automatically, e.g., with the aid of a software. […] Thus, the pixel sizes of the images may be properly adjusted so that FM spots corresponding to the vesicles are counted. One of ordinary skill in the art would appreciate that the images may be manipulated with techniques known in the art, e.g., smoothing, and the dynamic range (intensity range) may be adjusted so that majority (e.g., >90%) of the fluorescent spots are counted, with minimum interference from background noises. […]

DRG = experiment: Differential FEI labeling with FM2-10 and FM4-64 and KCl discharge; details: for numbers of endocytic vesicles induced by the two ligands: sequential ADP and 5-HT incubation with two FM dyes in the same cell, FIG. 8D
Experimental: This capability, for example, may be used to probe the vesicle sorting or trafficking inside the cells. It is known that GPCRs are active cargos for the internalized vesicles, and each different type of GPCR vesicles may have its own sorting pathway. To investigate different sorting paths of vesicles internalized under different conditions (time, ligand, etc.), vesicles can be labeled with FM dyes of different colors in the same cell.
As shown in the left panel, the cells in a dish is incubated with ADP and FM2-10 (green fluorophore). Then, the dye and ADP are washed away and a second incubation is performed with 5-HT and FM4-64 (red fluorophone). The cells are again washed and monitored with a confocal microscope, as illustrated in the right panel. Both FM2-10 and FM4-64 can be excited with a light at 488 nm. The emission of FM2-10 can be monitored at 530-600 nm, while the emission of FM4-64 can be monitored at >635 nm.
To test whether there is a common sorting pathways for the ADP-induced and 5-HT-induced endocytic vesicles, the cell was treated with 80 mM KCL for three minutes.

δ-opioid-DOR = target: T2, δ-opioid-DOR (Rattus norvegicus, UniProt P33533)
T2 construct: endogenous in cells; host or cells: freshly dissociated small DRG neurons of Wistar rats
T2 sequence (P33533 whole entry): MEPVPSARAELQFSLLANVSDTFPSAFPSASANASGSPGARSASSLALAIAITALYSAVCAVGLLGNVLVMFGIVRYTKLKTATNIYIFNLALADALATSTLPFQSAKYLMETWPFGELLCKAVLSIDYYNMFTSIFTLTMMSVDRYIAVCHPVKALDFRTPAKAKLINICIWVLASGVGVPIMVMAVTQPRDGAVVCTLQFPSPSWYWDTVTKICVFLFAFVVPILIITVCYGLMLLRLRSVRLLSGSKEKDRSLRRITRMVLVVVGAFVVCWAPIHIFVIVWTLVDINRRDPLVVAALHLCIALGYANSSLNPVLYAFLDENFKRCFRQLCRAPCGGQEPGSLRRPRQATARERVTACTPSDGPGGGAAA

DRG cells = experiment: Multi-well (2×2) FEI protocol; details: 3 minutes, FIG. 9C
Experimental: FIGS. 9A-9B illustrate a method of the invention that could be used for high throughput evaluation of LRB-induced endocytosis in a multi-well (here 2×2) format. The multi-well plate is the same as a standard cell culture plate, except that a 0.17 mm-thick glass cover-slip constitutes part of the bottom in each well. In this example, single DRG cells were plated on the cover-slips in the wells.
Well (1,1) is incubated with ES and FM, without any ligand. Well (1,2) is incubated with 80 mM KCl and FM. Well (2,1) is incubated with 0.1 mM ADP and FM. Well (2,2) is incubated with ADP, Suramin, and FM. The incubations are all performed for 3 minutes.
Each well was scanned in sequence to obtain the images shown in FIG. 9B, and the endocytic signal (FM spots/cell) were analyzed and presented in histograms (FIG. 9C). […] Within each column, the top image is a transmission microscopy image, showing the cells in the well. The cell bracketed by the square in each well is chosen for image analysis.
The selected cells are scanned for FM images of single OSs (middle image) as well as the global image (bottom image) in each cell (FIG. 9B).

DRG neuron = experiment: Time-resolved FEI recording (FIF recording)
Source text: Methods of the invention, as noted above, can provide images of endocytic vesicles with relative ease. Thus, these methods for detecting LRB-induced endocytosis can be used in real time to monitor the endocytosis processes. […] In real-time applications, the FEI methods described above may be modified as follows to provide better FIF results: (i) the spatial resolution can be reduced, i.e., OS thickness increased, to increase detection sensitivity; (ii) the confocal scan can be made at a fixed z-position (normally near the middle of the cell); and (iii) cell images can be obtained in the presence of extracellular FM dye (i.e., no need to wash away the dye outside the cells). Under these conditions, FIF recording can rapidly acquire many x-y images of the cell after ligand binding in order to monitor the LRB induced events in real time.
FIG. 7A illustrates a setup for performing a real-time recording of LRB-induced events. As illustrated, the cell is bathed in an ES solution containing a fluorescent dye (e.g., FM2-10), and the OS is selected to a thickness of about […] to have a better sensitivity. […] This is to provide background readings before the ligand is added. From image frame K+1 to image frame m (i.e., from tk+1 to tm), the cell is incubated with the ligand (ADP) in the ES solution. […]
The fluorescence intensity is proportional to the total number of endocytic vesicles. […]

P2Y = experiment: FM endocytosis imaging (FEI) of ADP-induced endocytosis in single DRG neuron
Source text: as §1
FIG. 2A illustrate a method of the invention. […] The ligand binds to the receptor and triggers receptor internalization (endocytosis). In the endocytosis process, the FM dye is internalized in endocytic vesicles. Subsequently, the excess FM-dye may be washed away, leaving behind cells loaded with dye filled vesicles that are observable due to the fluorescent dye. Using this procedure, single vesicles in a single cell can be visualized by FM imaging. Note that while this example uses an FM dye, other suitable dyes may also be used without departing from the scope of the invention. […] Therefore, some methods of the invention may not include the washing step.
When a confocal microscope is used, the images may be takes in different optical slices (OSs) based on different focal depth. […] The data can be observed as the distribution of FM spots (individual vesicles) in each OS or as a global view, which is a projection overlaying the FM images from different OSs. An advantage of viewing the individual OS is the ability to track the location of the endocytic vesicles within the cell. This would permit studies of vesicle trafficking inside the cells. The advantage of the global view is the total number of vesicles are observed and, therefore, it provides a maximum sensitivity for assay use. For example, the global view may be used to monitor LRB events as a function of time—e.g., in real-time monitoring. […]
as §3

5HT-R = experiment: FM endocytosis imaging (FEI) of 5-HT-induced endocytosis in DRG neuron
Source text: as §1, §2, §3, §4

T1 sequence (P35739 33-799): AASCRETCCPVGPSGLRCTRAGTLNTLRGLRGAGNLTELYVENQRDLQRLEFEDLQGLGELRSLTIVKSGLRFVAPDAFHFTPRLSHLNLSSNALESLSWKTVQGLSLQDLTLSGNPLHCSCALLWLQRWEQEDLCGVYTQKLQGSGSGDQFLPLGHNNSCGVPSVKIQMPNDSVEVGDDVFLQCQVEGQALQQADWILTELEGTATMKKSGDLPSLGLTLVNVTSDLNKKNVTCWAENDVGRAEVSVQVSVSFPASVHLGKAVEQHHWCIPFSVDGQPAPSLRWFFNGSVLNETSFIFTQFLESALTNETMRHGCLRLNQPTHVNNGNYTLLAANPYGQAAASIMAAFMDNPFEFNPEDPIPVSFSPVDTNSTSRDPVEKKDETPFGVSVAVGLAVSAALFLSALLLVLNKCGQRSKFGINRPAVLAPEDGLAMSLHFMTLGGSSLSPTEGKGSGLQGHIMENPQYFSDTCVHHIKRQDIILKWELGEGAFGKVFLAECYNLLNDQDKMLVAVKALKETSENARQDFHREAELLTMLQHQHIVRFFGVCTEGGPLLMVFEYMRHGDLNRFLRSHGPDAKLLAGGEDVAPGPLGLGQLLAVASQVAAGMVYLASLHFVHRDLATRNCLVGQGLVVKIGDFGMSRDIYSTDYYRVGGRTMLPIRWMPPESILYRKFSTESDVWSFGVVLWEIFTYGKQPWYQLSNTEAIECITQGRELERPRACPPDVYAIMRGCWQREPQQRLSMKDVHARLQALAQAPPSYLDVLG

nerve growth factor [NGF]
endocytic vesicles (FM spots) [1]: substantial increase

[Cl-].[K+] [KCl]
green/5HT-R vesicles discharged (DRG; 80 mM KCL for three minutes, 5-HT-induced vesicles, FIG. 8E): about 37% | red/P2Y vesicles discharged (DRG; 80 mM KCL for three minutes, ADP-induced vesicles, FIG. 8E): about 43% | vesicles lost after the KCl treatment (DRG; 80 mM KCL for three minutes, FIG. 8C): significant amount of vesicles were lost

CC(C)[C@H](NC(=O)[C@H](CCC(=O)O)NC(=O)[C@H](Cc1ccccc1)NC(=O)[C@@H](C)NC(=O)[C@@H](N)Cc1ccc(O)cc1)C(=O)N[C@H](C(=O)NCC(=O)O)C(C)C [deltorphin]
number of FM spots relative to those induced by AR, GABAB, and mAChR (δ-opioid-DOR): 2-3 times

Cc1ccc(C(=O)Nc2ccc(S(=O)(=O)O)c3cc(S(=O)(=O)O)cc(S(=O)(=O)O)c23)cc1NC(=O)c1cccc(NC(=O)Nc2cccc(C(=O)Nc3cc(C(=O)Nc4ccc(S(=O)(=O)O)c5cc(S(=O)(=O)O)cc(S(=O)(=O)O)c45)ccc3C)c2)c1 [suramin]
inhibition of ADP-induced endocytosis (FM spots/cell) (DRG cells; ADP, Suramin, and FM): inhibited

Nc1ncnc2c1ncn2[C@@H]1O[C@H](COP(=O)(O)OP(=O)(O)O)[C@@H](O)[C@H]1O [ADP]
numbers of endocytic vesicles induced by the two ligands (DRG): similar | number of fluorescent spots (endocytic vesicles) in the cell (DRG neuron; image at t=tm (ADP) vs t=tk (control), DRG neuron): substantial increase | fluorescence intensity (number of endocytic vesicles) inside the cell (DRG neuron; time course, average of 21 experiments, extracellular FM dye present): significantly increases | endocytosis (FM spots/cell) (DRG cells; 0.1 mM ADP and FM): induced significant endocytosis | distribution of endocytic vesicles, medulla compared with periphery (P2Y; ADP-induced vesicles in DRG neuron, histogram FIG. 3C): Almost twice as many | number of FM spots relative to those induced by AR, GABAB, and mAChR (P2Y; DRG neuron, ligands separately introduced, FIG. 6B): 2-3 times | number of FM spots (endocytic vesicles) (P2Y; FM+ADP 3 min vs FM+ES control 3 min, single DRG neuron, FIG. 3A/3B): increased dramatically; also recorded: dramatic increase

NCCc1c[nH]c2ccc(O)cc12 [5-HT, 5-hydroxytryptamine]
numbers of endocytic vesicles induced by the two ligands (DRG): similar | endocytic vesicles (FM spots) (5HT-R; 5-HT 0.1 mM vs control incubated with ES 3 minutes): substantial increases | number of FM spots relative to those induced by AR, GABAB, and mAChR (5HT-R; ligands separately introduced, FIG. 6B): 2-3 times
